Reference: patent publication US9314026B2, “Heterocyclylpyri(mi)dinylpyrazole” (Bayer Intellectual Property GmbH, priority 2011, dated 2016)

Legend:
[1] = determination of the log P values by HPLC on a reverse phase column (C18), EEC-Directive 79/831 Annex V.A8; type: physicochemical
Outline: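 Log P determined per EEC-Directive 79/831 Annex V.A8 by reverse-phase (C18) HPLC (methods A, B) or UPLC (method C), with mass detection.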

Botrytis cinerea = experiment: Botrytis test (beans)/preventive; type: in vivo; conditions: 48 h, 100 ppm of active ingredient, preventive, size of lesions evaluated 2 days after inoculation, read-out: efficacy
Protocol: Botrytis Test (Beans)/Preventive Solvent: 24.5 parts by weight of acetone • 24.5 parts by weight of dimethylacetamide Emulsifier: 1 part by weight of alkylaryl polyglycol ether To produce a suitable preparation of active compound, 1 part by weight of active compound is mixed with the stated amounts of solvent and emulsifier, and the concentrate is diluted with water to the desired concentration. To test for preventive activity, young plants are sprayed with the preparation of active compound. After the spray coating has dried on, 2 small pieces of agar covered with growth of Botrytis cinerea are placed on each leaf.

Alternaria solani = experiment: Alternaria test (tomato)/preventive; type: in vivo; conditions: 168 h, 500 ppm of active ingredient, preventive, evaluated 7 days after inoculation, read-out: efficacy
Protocol: Alternaria Test (Tomato)/Preventive Solvent: 49 parts by weight of N,N-Dimethylformamide Emulsifier: 1 part by weight of Alkylarylpolyglycolether To produce a suitable preparation of active compound, 1 part by weight of active compound is mixed with the stated amounts of solvent and emulsifier, and the concentrate is diluted with water to the desired concentration. To test for preventive activity, young plants are sprayed with the preparation of active compound at the stated rate of application. One day after this treatment, the plants are inoculated with an aqueous spore suspension of Alternaria solani. […] Then the plants are placed in an incubation cabinet at approximately 20° C. and a relative atmospheric humidity of 96%.

Sphaerotheca fuliginea = experiment: Sphaerotheca test (cucumber)/preventive; type: in vivo; conditions: Podosphaera fuliginea, 168 h, 500 ppm of active ingredient, preventive, evaluated 7 days after inoculation, 0% = untreated control, 100% = no disease, read-out: efficacy
Protocol: (§1) Sphaerotheca Test (Cucumber)/Preventive Solvent: 49 parts by weight of N,N-Dimethylformamide Emulsifier: 1 part by weight of Alkylarylpolyglycolether To produce a suitable preparation of active compound, 1 part by weight of active compound is mixed with the stated amounts of solvent and emulsifier, and the concentrate is diluted with water to the desired concentration. To test for preventive activity, young plants are sprayed with the preparation of active compound at the stated rate of application. One day after this treatment, the plants are inoculated with an aqueous spore suspension of Sphaerotheca fuliginea.

Plasmopara viticola = experiment: Plasmopara test (grapevines)/preventive; type: in vivo; conditions: 100 ppm of active ingredient, preventive, evaluated 6 days after inoculation
Protocol: Plasmopara Test (Grapevines)/Preventive Solvent: 24.5 parts by weight of acetone • 24.5 parts by weight of dimethylacetamide Emulsifier: 1 part by weight of alkylaryl polyglycol ether To produce a suitable preparation of active compound, 1 part by weight of active compound is mixed with the stated amounts of solvent and emulsifier, and the concentrate is diluted with water to the desired concentration. To test for preventive activity, young plants are sprayed with the preparation of active compound at the stated rate of application. […] The plants are then misted and placed for 1 day in an incubation cabinet.

Septoria tritici = experiment: Septoria tritici-test (wheat)/preventive; type: in vivo; conditions: 500 ppm of active ingredient, preventive, evaluated 21 days after inoculation
Protocol: Septoria tritici-Test (Wheat)/Preventive Solvent: 49 parts by weight of n,n-dimethylacetamid Emulsifier: 1 part by weight of alkylaryl polyglycol ether To produce a suitable preparation of active compound, 1 part by weight of active compound or active compound combination is mixed with the stated amounts of solvent and emulsifier, and the concentrate is diluted with water to the desired concentration. To test for preventive activity, young plants are sprayed with the preparation of active compound or active compound combination at the stated rate of application. After the spray coating has been dried, the plants are sprayed with a spore suspension of Septoria tritici.

Leptosphaeria nodorum = experiment: Leptosphaeria test (wheat)/preventive; type: in vivo; conditions: Parastagonospora nodorum, 500 ppm of active ingredient, preventive, evaluated 7-9 days after inoculation, read-out: efficacy
Protocol: (§2) Leptosphaeria Test (Wheat)/Preventive Solvent: 49 parts by weight of N,N-Dimethylformamide Emulsifier: 1 part by weight of Alkylarylpolyglycolether To produce a suitable preparation of active compound, 1 part by weight of active compound is mixed with the stated amounts of solvent and emulsifier, and the concentrate is diluted with water to the desired concentration. To test for preventive activity, young plants are sprayed with a preparation of active compound at the stated rate of application. One day after this treatment, the plants are inoculated with an aqueous spore suspension of Leptosphaeria nodorum.

Fusarium graminearum = experiment: whole plant or invertebrate; type: in vivo; conditions: in Hordeum vulgare, 120 h, read-out: efficacy
Phytophthora infestans = experiment: whole plant or invertebrate; type: in vivo; conditions: 72 h, read-out: efficacy
Pyrenophora teres = experiment: Pyrenophora test (barley)/preventive; type: in vivo; conditions: 500 ppm of active ingredient, preventive, evaluated 7-9 days after inoculation, read-out: efficacy
Protocol: as §1, with “Pyrenophora” for “Sphaerotheca”, “(Barley)/Preventive” for “(Cucumber)/Preventive”, “Pyrenophora teres.” for “Sphaerotheca fuliginea.”

Puccinia recondita = experiment: Puccinia test (wheat)/preventive; type: in vivo; conditions: 500 ppm of active ingredient, preventive, evaluated 7-9 days after inoculation, read-out: efficacy
Protocol: as §2, with “Puccinia Test (Wheat)/Preventive” for “Leptosphaeria Test (Wheat)/Preventive”, “sprayed with the preparation of” for “sprayed with a preparation of”, “suspension of Puccinia recondita.” for “suspension of Leptosphaeria nodorum.”

[2] = system: Fusarium nivale (var. majus); experiment: Fusarium nivale (var. majus)-test (wheat)/preventive; type: in vivo; conditions: Microdochium nivale, 120 h, 500 ppm of active ingredient, preventive, evaluated 5 days after inoculation, read-out: efficacy
Protocol: Fusarium nivale (Var. Majus)-Test (Wheat)/Preventive Solvent: 49 parts by weight of n,n-dimethylacetamid Emulsifier: 1 part by weight of alkylaryl polyglycol ether To produce a suitable preparation of active compound, 1 part by weight of active compound or active compound combination is mixed with the stated amounts of solvent and emulsifier, and the concentrate is diluted with water to the desired concentration. To test for preventive activity, young plants are sprayed with the preparation of active compound or active compound combination at the stated rate of application. After the spray coating has been dried, the plants are slightly injured by using a sandblast and afterwards they are sprayed with a conidia suspension of Fusarium nivale (var. majus).

Pyricularia oryzae = experiment: whole plant or invertebrate; type: in vivo; conditions: 168 h, read-out: efficacy
Venturia inaequalis = experiment: Venturia test (apples)/preventive; type: in vivo; conditions: 100 ppm of active ingredient, preventive, evaluated 10 days after inoculation
Protocol: Venturia Test (Apples)/Preventive Solvent: 24.5 parts by weight of acetone • 24.5 parts by weight of dimethylacetamide Emulsifier: 1 part by weight of alkylaryl polyglycol ether To produce a suitable preparation of active compound, 1 part by weight of active compound is mixed with the stated amounts of solvent and emulsifier, and the concentrate is diluted with water to the desired concentration. To test for preventive activity, young plants are sprayed with the preparation of active compound at the stated rate of application.

Structure (SMILES) | chromatographic logP [1] | pest or weed control at 100 ppm (Botrytis cinerea) [%] | pest or weed control at 500 ppm (Alternaria solani) [%] | pest or weed control at 500 ppm (Sphaerotheca fuliginea) [%] | efficacy (Plasmopara viticola) [%] | efficacy (Septoria tritici) [%] | pest or weed control at 500 ppm (Leptosphaeria nodorum) [%] | pest or weed control at 500 ppm (Fusarium graminearum) [%] | pest or weed control at 100 ppm (Phytophthora infestans) [%] | pest or weed control at 500 ppm (Pyrenophora teres) [%] | pest or weed control at 500 ppm (Puccinia recondita) [%] | pest or weed control at 500 ppm [2] [%] | pest or weed control at 500 ppm (Pyricularia oryzae) [%] | efficacy (Venturia inaequalis) [%]
CC(=O)N(C(C)=O)c1cc(-c2c(-c3ccc(F)cc3)nn3c2CCCC3)ccn1 [Example 1, N-acetyl-N-{4-[2-(4-fluorophenyl)-4,5,6,7-tetrahydropyrazolo[1,5-a]pyridin-3-yl]pyridin-2-yl}acetamide] | 2.42 | 88 | 100 | 94 | 75 | 100 | 95 | 100 | 94 | 95 | 100 | 100 | 80 | 
CCC(=O)N(C(C)=O)c1cc(-c2c(-c3ccc(F)cc3)nn3c2CCC3)ccn1 [Example 5, N-acetyl-N-{4-[2-(4-fluorophenyl)-5,6-dihydro-4H-pyrrolo[1,2-b]pyrazol-3-yl]pyridin-2-yl}propanamide] | 2.43 | 100 | 90 | 100 | 94 | 86 | 95 | 92 | 83 | 100 | 100 | 100 | 95 | 99
CCC(=O)N(C(C)=O)c1cc(-c2c(-c3ccc(F)cc3)nn3c2CCC3C)ccn1 (stereo not shown) [Example 6, N-acetyl-N-{4-[2-(4-fluorophenyl)-6-methyl-5,6-dihydro-4H-pyrrolo[1,2-b]pyrazol-3-yl]pyridin-2-yl}propanamide] | 2.78 | 89 | 70 | 95 | 94 | 86 | 95 | 83 | 91 | 100 | 100 | 100 | 90 | 98
CCC(=O)N(C(=O)CC)c1cc(-c2c(-c3ccc(F)cc3)nn3c2CCC3)ccn1 [Example 7, N-{4-[2-(4-fluorophenyl)-5,6-dihydro-4H-pyrrolo[1,2-b]pyrazol-3-yl]pyridin-2-yl}-N-propionylpropanamide] | 2.81 | 99 | 90 | 98 | 100 | 86 | 90 | 92 | 95 | 95 | 95 | 100 | 70 | 100
